Read-outs that look alike come from different tables or passages of the source.
Experiments:
[1] = tested on: total antioxidant concentrations in bees; assay: Total antioxidant capacity of bees (quantification of ROS); assay type: in vivo, Apis mellifera; details: alone
Procedure: (§1) The ability of KATP modulators to rescue or synergize paraquat-induced mortality was then assessed by incorporating modulators into 1:1 sucrose containing paraquat. […] Quantification of ROS among survivors was performed using the Total Antioxidant Capacity Assay kit (Cayman Chemical).

glucose oxidase (GOX) = assay: Glucose oxidase activity of treated bees (social immunity); assay type: in vivo, Apis mellifera
Procedure: (§2) Individual bees were sampled at 24-h intervals and frozen in liquid nitrogen. Social immunity was measured by quantifying the metabolism of glucose to hydrogen peroxide by glucose oxidase. Briefly, heads were homogenized in ice-cold extraction buffer then centrifuged at 15,000×g. Aliquots of supernatant were incubated with horse radish peroxidase and glucose at 37 °C, then combined with the chromogen o-dianisidine dihydrochloride. Absorbance was read at 430 nm over a period of 90 min and compared to sample blanks, lacking chromogen. To measure individual immunity, phenoloxidase activity was measured as described. Abdomens were homogenized as and centrifuged as previously described. Supernatant was incubated at 37 °C, then combined with the chromogen L-Dopa. Absorbance was measured at 490 nm for 20 min, then compared to sample blanks lacking chromogen. To compare both glucose oxidase and phenol oxidase activity between samples, Vmax was calculated using the Michaelis–Menten equation.

[2] = tested on: bees from Varroa destructor infested colonies; assay type: in vivo, Apis mellifera
Procedure: Age-matched bees from colonies with higher (> 10 mites/100 bees) and lower (< 1 mite/100 bees) were placed in hoarding cages and allowed to feed ad libitum on sucrose solution alone or containing paraquat. Survivorship was assessed at 24-h intervals, and LT50 times were calculated by nonlinear regression using a Hill equation.

[3] = tested on: bees inoculated with Israeli acute paralysis virus (IAPV); assay: IAPV-mediated mortality of bees fed KATP modulator or paraquat; assay type: in vivo, Apis mellifera; set-up: Survivorship after IAPV inoculation compared to IAPV alone: dose or concentration left out as unconfirmed
Procedure: IAPV was obtained following our previously described methods. Approximately 30 adult bees from a heavily infected IAPV infected colony were froze in liquid nitrogen, ground to a fine powder, and homogenized in a phosphate extraction buffer. The supernatant was collected after centrifuging the emulsion and filtered through a 0.2 micron filter. The filtrate was subsequently centrifuged at 30,000 rpm to pellet the picornavirus particles and was followed by resusopension in PBS and centrifuged at 52,000 rpm overnight. The fractions containing virus particles were dialyzed against cold PBS overnight. Verification that IAPV was the only virus present in the inoculum was performed via qRT-PCR and quantification of IAPV was performed by absolute quantification using standard curve method as previously described.
Bees were immobilized on ice, then injected with PBS alone or containing IAPV and returned to the incubator. […] Quantification of IAPV mRNA among whole bees and excised insect dorsal vessels was performed by qRT-PCR as detailed below.

phenoloxidase (POX) = assay: Phenoloxidase activity of treated bees (individual immunity); assay type: in vivo, Apis mellifera
Procedure: as §2

honey bees [4] = assay type: in vivo, Apis mellifera
Procedure: as §1

honey bees [5] = assay type: in vivo, Apis mellifera; remark: listed apart in the source
Procedure: An LC50 for paraquat in 1:1 sucrose diet was determined for 72 h of oral exposure by constructing a concentration–response curve. The ability of KATP modulators to rescue or synergize paraquat-induced mortality was then assessed by incorporating modulators into 1:1 sucrose containing paraquat. Mortality assessments and sampling of surviving bees was conducted at 24-h intervals. Quantification of ROS among survivors was performed using the Total Antioxidant Capacity Assay kit (Cayman Chemical).

Flock House virus (FHV) = tested on: Flock House virus (FHV); set-up: method as in PMID 28819165; details: cited from earlier work
bee dorsal vessel = tested on: bee dorsal vessel; set-up: method as in PMID 28412203; details: cited from earlier work
DWV-B = assay: Field colony study, change in virus titer by qRT-PCR: DWV-B; assay type: in vivo, Deformed Wing virus
Procedure: (§3) Nucleus colonies of bees were established as previously described and relocated to a geographically isolated apiary and were grown to full-size colonies and equalized based on population prior to initiation of the study. The bees were maintained in eight-frame Langstroth equipment and kept as single deeps with a medium super with undrawn foundation. […] DWV inoculum was prepared by injecting filter-sterilized homogenate from a DWV-positive symptomatic bee into white-eyed honey bee pupae. 72-h later, an aliquot of pupae was screened for preliminary confirmation of DWV infection and found to contain between 5E9 and 8E9 viral copies of DWV-A per individual. Remaining pupae were homogenized in ice-cold PBS, with aliquots retained for qRT-PCR screening of DWV, as well as additional viruses relevant to bee health. Homogenate solutions were diluted in 1:1 sucrose and placed in calibrated spray bottles. A treatment and sampling schedule was constructed based on the 21-day egg-to-adult life history of worker bees (Additional file 1: Fig. S1). Both pinacidil and virus solutions were prepared fresh daily. […] A quantity of 15 fully formed adult stage bees were removed from the capped cells and placed into 15 mL conical vials. All samples were stored on dry ice during field collection, then transferred to − 80 °C until virus quantification. Titers of DWV-A, DWV-B, BQCV, IAPV, LSV-1 and LSV-2 were quantified by qRT-PCR using primer sequences described in our previous publications.
(§4) Samples were removed from − 80 °C storage and placed in a nuclease-free chilled bead bath (~ 4 °C) to gently thaw. […] RNA concentrations were then quantified for each sample using the NanoDrop 1-C® instrument. […] Library construction was performed using the Quantitect Reverse Transcription kit according to manufacturer instructions (Qiagen, N.V.). Template cDNA was then quantified by NanoDrop 1-C® and standardized to 500 ng/uL by addition of nuclease-free H2O.
(§5) To accurately quantify virus infection, it was necessary to first construct a standard curve for each target virus. […]

DWV-A = assay: Field colony study, change in virus titer by qRT-PCR: DWV-A; assay type: in vivo, Deformed Wing virus
Procedure: as §3, §4, §5

bee-relevant viruses = assay: Field colony study, bee-relevant viruses overall; assay type: in vivo, Apis mellifera
Procedure: as §3, §4, §5

LSV-2 = assay: Field colony study, change in virus titer by qRT-PCR: LSV-2; assay type: in vivo, Lake Sinai virus; details: emerging brood, 2 mM pinacidil, colony level
Procedure: as §3, with “individual.” for “individual. Remaining pupae were homogenized in ice-cold PBS, with aliquots retained for qRT-PCR screening of DWV, as well as additional viruses relevant to bee health. Homogenate solutions were diluted in 1:1 sucrose and placed in calibrated spray bottles. A treatment and sampling schedule was constructed based on the 21-day egg-to-adult life history of worker bees (Additional file 1: Fig. S1). Both pinacidil and virus solutions were prepared fresh daily.”
as §4, with “Template cDNA was then quantified by NanoDrop 1-C® and standardized to 500 ng/uL by addition of nuclease-free H2O.” left out

IAPV = IAPV mRNA titer in excised dorsal vessels by qRT-PCR; assay type: in vivo, Israeli acute paralysis virus; details: pinacidil 24 h prior to IAPV inoculation; vessels excised 24 h post-inoculation
Procedure: Groups of 30 age-matched bees were fed 1:1 sucrose diet alone or containing KATP modulators or 0.5 mg/mL paraquat for 24 h. Bees were immobilized on ice, then injected with PBS alone or containing IAPV and returned to the incubator. Mortality assessments and sampling of survivors were conducted at 24-h intervals. Quantification of IAPV mRNA among whole bees and excised insect dorsal vessels was performed by qRT-PCR as detailed below.
as §4
To accurately quantify virus infection, it was necessary to first construct a standard curve for each target virus. […] Single-stranded DNA concentration was quantified for each cDNA library with the NanoDrop 1-C® instrument (Thermofisher Scientific) and the number of amplicon copies per μL of solution was determined using online calculators available at SciencePrimer.com. […]

[6] = tested on: Black queen cell virus (BQCV); assay: Field colony study, change in virus titer by qRT-PCR: BQCV; assay type: in vivo
Procedure: as §3, §4, §5

[7] = emerging brood, 2 mM pinacidil, colony level

SMILES: C[n+]1ccc(-c2cc[n+](C)cc2)cc1 [paraquat, Paraquat dichloride hydrate]
- Reduction of total antioxidant concentrations compared to untreated ([1]; 24 h): 1.3 fold
- Reduction of total antioxidant concentrations compared to control treatment ([1]; 48 h): 1.4 fold
- Decrease in GOX compared to pinacidil-treated bees (glucose oxidase (GOX); in vivo): 3.3 fold
- Decrease in GOX compared to untreated bees (glucose oxidase (GOX); in vivo): 11 fold
- Survivorship difference between low and high mite groups ([2]; 1 and 2 mg/mL paraquat): no statistical differences
- LT50 (95% CI) ([2]; High mites, paraquat 0.1 mg/mL): 169 (142–177) Ba Hours
- LT50 (95% CI) ([2]; High mites, paraquat 0.5 mg/mL): 99 (71–136) Bb Hours
- LT50 (95% CI) ([2]; High mites, paraquat 1 mg/mL): 52 (22–84) Ac Hours
- LT50 (95% CI) ([2]; High mites, paraquat 2 mg/mL): 47 (38–63) Ac Hours
- LT50 (95% CI) ([2]; Low mites, paraquat 0.1 mg/mL): 82 (51–99) Aa Hours
- LT50 (95% CI) ([2]; Low mites, paraquat 0.5 mg/mL): 66 (52–80) Ab Hours
- LT50 (95% CI) ([2]; Low mites, paraquat 1 mg/mL): 54 (38–70) Ab Hours
- LT50 (95% CI) ([2]; Low mites, paraquat 2 mg/mL): 49 (42–56) Ab Hours
- Survivorship of bees from high versus low mite-infested colonies ([2]; paraquat 0.1 mg/mL, 96- to 168-h post treatment): significantly increased
- Mortality in high mite versus low mite colonies ([2]; paraquat 0.5 mg/mL, 72- and 96-h post treatment): significant (P < 0.05) reduction of mortality
- Survivorship after IAPV inoculation compared to IAPV alone [3]: increased survivorship
- Mortality of IAPV + paraquat versus untreated control ([3]; 0.5 mg/mL paraquat, 24- and 48-h post-inoculation): not significantly different
- Mortality of paraquat + IAPV versus untreated and IAPV-only bees ([3]; 0.5 mg/mL paraquat, 72 h post-inoculation): significantly (P < 0.05) greater than untreated bees, but significantly less than IAPV-only treated bees
- POX activity (phenoloxidase (POX); 72 h post-exposure): significantly reduced
- LT50 (honey bees [4]; 0.5 mg/mL paraquat alone, injection experiment): ca. 75 h
- LT50 (honey bees [4]; oral, paraquat exposure alone): ca. 68 h
- Mortality (honey bees [5]; paraquat 1 and 2 mg/mL, 48 h post-exposure): ca. 50%
- Mortality (honey bees [5]; paraquat 1 and 2 mg/mL, 72 h post-exposure): ca. 100%
- Mortality (honey bees [5]; paraquat, 48 h post-exposure): ca. 20%
- Mortality (honey bees [5]; paraquat, 72 h post-exposure): ~58%

SMILES: CC(N/C(=N\C#N)Nc1ccncc1)C(C)(C)C (stereo not shown) [pinacidil]
- Antioxidant levels compared to untreated individuals ([1]; 24 h post-treatment): did not reduce
- Reduction of total antioxidant concentrations ([1]; 72 h): 1.5 fold
- Increase in GOX activity compared to untreated bees (glucose oxidase (GOX); 24-h exposure): 3 fold
- Increase in GOX activity compared to untreated bees (glucose oxidase (GOX); 72-h exposure): 2.3 fold
- Effect against FHV infection of bees (Flock House virus (FHV)): protective effect
- Dorsal vessel contraction rates (bee dorsal vessel): increases
- Mortality of pinacidil + IAPV versus control treatment ([3]; 24-, 72-, or 96-h post-inoculation): No significant difference
- Reduction in mortality compared to control bees ([3]; pinacidil + IAPV, 48 and 120 h): 25%
- Change of DWV-B titer versus uninoculated colonies (DWV-B; emerging brood, 2 mM pinacidil): not significantly different
- Reduction of change in DWV-B titer compared to virus only inoculated colonies (DWV-B; [7]): sixfold
- DWV-B titers, virus only versus pinacidil + virus (DWV-B; nurse/forager bees): not significantly different
- Change of DWV-A titer versus uninoculated colonies (DWV-A; emerging brood, 2 mM pinacidil): not significantly different
- Reduction of change in DWV-A titer compared to virus only inoculated colonies (DWV-A; [7]): eight
- DWV-A titers, virus only versus pinacidil + virus (DWV-A; nurse/forager bees): not significantly different
- POX activity (phenoloxidase (POX); 24- and 72-h exposure): no statistical differences
- Reduction of titers of bee-relevant viruses (bee-relevant viruses; colonies treated with pinacidil in the field): up to 75 fold
- Viral replication in nurse bees (bee-relevant viruses; field study): did not reduce viral replication
- Viral replication in emerging bees (bee-relevant viruses; field study, mature colonies): near elimination
- Reduction of LSV-2 replication compared to virus inoculation-only colonies (LSV-2): approximately fivefold
- Reduction in IAPV mRNA titer in the dorsal vessel versus IAPV-inoculated bees (IAPV): 17.5 fold
- Change in BQCV titer versus untreated colonies ([6]; emerging brood, 2 mM pinacidil): not significantly different
- Reduction of BQCV replication compared to virus only [6, 7]: 3.8 fold
- BQCV replication compared to virus only inoculated colonies ([6]; nurse/forager bees): did not reduce viral replication

SMILES: CCCCNC(=O)NS(=O)(=O)c1ccc(C)cc1 [tolbutamide]
- Effect on paraquat-induced toxicity (honey bees [4]; pre-exposure to modulator, 120-h feeding period): did not alter
